Measured values from patent US9115148B2, “Spirocyclic derivatives as histone deacetylase inhibitors” (DAC S.R.L., priority 2008, dated 2015).
pIC50: −log10 of the molar value.

Legend:
HCT-116 cells = experiment: Cell growth, CellTiter-Glo Luminescent Cell Viability Assay, HCT-116; assay type: cell-based; conditions: Homo sapiens, HCT116 cells, 72 h incubation, read-out: IC50 antiproliferative assay HCT116
Method in brief: (§1)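 Exponentially growing cells exposed 72 h to a range of inhibitor concentrations. Viability measured as cellular ATP by CellTiter-Glo luminescence (2 min lysis, read after 10 min RT); IC50 calculated and binned into ranges (≤1.0, 1.0–3.0, ≥3.0 μM).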

A549 cells = experiment: Cell growth, CellTiter-Glo Luminescent Cell Viability Assay, A549; assay type: cell-based; conditions: Homo sapiens, 72 h incubation, read-out: IC50 antiproliferative assay A549
Method in brief: as §1

K562 cells = experiment: Cell growth, CellTiter-Glo Luminescent Cell Viability Assay, K562; assay type: cell-based; conditions: Homo sapiens, 72 h incubation, read-out: IC50 antiproliferative assay K562
Method in brief: as §1

[1] = tested on: HDAC (nuclear fraction of Hela cells); experiment: Assay of enzyme inhibition of HDAC (BIOMOL Kit); assay type: biochemical; conditions: substrate 200 μM, 15 min at RT
Method in brief: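 Enzyme source was HeLa nuclear fraction, incubated 15 min at RT with compound and an acetyl-lysine substrate at 200 μM. IC50 values were derived from concentration-response data.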

Row | SMILES | pIC50 (HCT-116 cells) | pIC50 (A549 cells) | pIC50 (K562 cells) | pIC50 [1]
1 | O=C(/C=C/c1ccc2c(c1)C(=O)CC1(CCN(CCCc3ccccc3)CC1)O2)NO [Example 45, (E)-3-{1′-(3-Phenyl-propyl)-4-oxo-spiro[chromane-2,4′-piperidine]-6-yl}-N-hydroxy-acrylamide] | ≥ 6.00 | 5.52 to 6.00 | ≥ 6.00 | 6.00 to 7.00
2 | CCNC(=O)N1CCC2(CC1)CC(=O)c1cc(/C=C/C(=O)NO)ccc1O2 [Example 46, (E)-3-{1′-Ethylcarbamoyl-4-oxo-spiro[chromane-2,4′-piperidine]-6-yl}-N-hydroxy-acrylamide] | ≤ 5.52 | ≤ 5.52 | ≤ 5.52 | 6.00 to 7.00
3 | O=C(/C=C/c1ccc2c(c1)C(=O)CC1(CCN(C(=O)NCc3ccccc3)CC1)O2)NO [Example 47, (E)-3-{1′-Benzylcarbamoyl-4-oxo-spiro[chromane-2,4′-piperidine]-6-yl}-N-hydroxy-acrylamide] | ≤ 5.52 | ≤ 5.52 | ≤ 5.52 | 6.00 to 7.00
4 | O=C(/C=C/c1ccc2c(c1)C(=O)CC1(CCN(C(=O)Nc3ccccc3)CC1)O2)NO [Example 48, (E)-3-{1′-Phenylcarbamoyl-4-oxo-spiro[chromane-2,4′-piperidine]-6-yl}-N-hydroxy-acrylamide] | 5.52 to 6.00 | ≤ 5.52 | 5.52 to 6.00 | 6.00 to 7.00
5 | O=C(/C=C/c1ccc2c(c1)C(=O)CC1(CCN(CCc3c[nH]c4ccccc34)CC1)O2)NO [Example 49] | ≥ 6.00 | ≥ 6.00 | ≥ 6.00 | > 7.00
6 | O=C(/C=C/c1ccc2c(c1)C(=O)CC1(CCN(Cc3c[nH]c4ccccc34)CC1)O2)NO [Example 50] | ≥ 6.00 | ≥ 6.00 | ≥ 6.00 | > 7.00
7 | Cc1[nH]c2ccccc2c1CN1CCC2(CC1)CC(=O)c1cc(/C=C/C(=O)NO)ccc1O2 [Example 51, (E)-3-{1′-(2-Methyl-1H-indol-3-ylmethyl)-4-oxo-spiro[chromane-2,4′-piperidine]-6-yl}-N-hydroxy-acrylamide] | ≥ 6.00 | ≥ 6.00 | ≥ 6.00 | > 7.00
8 | O=C(/C=C/c1ccc2c(c1)C(=O)CC1(CCN(Cc3ccc(-c4ccccc4)cc3)CC1)O2)NO [Example 52, (E)-3-{1′-(Biphenyl-4-ylmethyl)-4-oxo-spiro[chromane-2,4′-piperidine]-6-yl}-N-hydroxy-acrylamide] | ≥ 6.00 | 5.52 to 6.00 | ≥ 6.00 | 6.00 to 7.00
9 | O=C(/C=C/c1ccc2c(c1)C(=O)CC1(CCN(Cc3c[nH]c4cc(F)ccc34)CC1)O2)NO [Example 53, (E)-3-{1′-(6-Fluoro-1H-indol-3-ylmethyl)-4-oxo-spiro[chromane-2,4′-piperidine]-6-yl}-N-hydroxy-acrylamide] | ≥ 6.00 | 5.52 to 6.00 | ≥ 6.00 | > 7.00
10 | O=C(/C=C/c1ccc2c(c1)C(=O)CC1(CCN(Cc3c[nH]c4ccc(F)cc34)CC1)O2)NO [Example 54, (E)-3-{1′-(5-Fluoro-1H-indol-3-ylmethyl)-4-oxo-spiro[chromane-2,4′-piperidine]-6-yl}-N-hydroxy-acrylamide] | ≥ 6.00 | ≥ 6.00 | ≥ 6.00 | > 7.00
11 | O=C(/C=C/c1ccc2c(c1)C(=O)CC1(CCN(CCc3ccccc3)CC1)O2)NO [Example 55, (E)-3-{1′-(2-Phenyl-ethyl)-4-oxo-spiro[chromane-2,4′-piperidine]-6-yl}-N-hydroxy-acrylamide] | ≥ 6.00 | ≥ 6.00 | ≥ 6.00 | 6.00 to 7.00
12 | O=C(/C=C/c1ccc2c(c1)C(=O)CC1(CCN(CCc3ccc(F)cc3)CC1)O2)NO [Example 56, (E)-3-{1′-[2-(4-Fluoro-phenyl)-ethyl]-4-oxo-spiro[chromane-2,4′-piperidine]-6-yl}-N-hydroxy-acrylamide] | ≥ 6.00 | ≥ 6.00 | ≥ 6.00 | > 7.00
13 | O=C(/C=C/c1ccc2c(c1)C(=O)CC1(CCN(CCc3ccc(Cl)cc3)CC1)O2)NO [Example 57, (E)-3-{1′-[2-(4-Chloro-phenyl)-ethyl]-4-oxo-spiro[chromane-2,4′-piperidine]-6-yl}-N-hydroxy-acrylamide] | ≥ 6.00 | ≥ 6.00 | ≥ 6.00 | 6.00 to 7.00
14 | COc1ccc(CCN2CCC3(CC2)CC(=O)c2cc(/C=C/C(=O)NO)ccc2O3)cc1 [Example 58, (E)-3-{1′-[2-(4-Methoxy-phenyl)-ethyl]-4-oxo-spiro[chromane-2,4′-piperidine]-6-yl}-N-hydroxy-acrylamide] | ≥ 6.00 | ≥ 6.00 | ≥ 6.00 | > 7.00
15 | O=C(/C=C/c1ccc2c(c1)C(=O)CC1(CCN(CCc3ccccc3F)CC1)O2)NO [Example 59, (E)-3-{1′-[2-(2-Fluoro-phenyl)-ethyl]-4-oxo-spiro[chromane-2,4′-piperidine]-6-yl}-N-hydroxy-acrylamide] | ≥ 6.00 | ≥ 6.00 | ≥ 6.00 | 6.00 to 7.00
16 | COc1cccc(CCN2CCC3(CC2)CC(=O)c2cc(/C=C/C(=O)NO)ccc2O3)c1 [Example 60, (E)-3-{1′-[2-(3-Methoxy-phenyl)-ethyl]-4-oxo-spiro[chromane-2,4′-piperidine]-6-yl}-N-hydroxy-acrylamide] | ≥ 6.00 | ≥ 6.00 | ≥ 6.00 | 6.00 to 7.00
17 | Nc1ccc(CCN2CCC3(CC2)CC(=O)c2cc(/C=C/C(=O)NO)ccc2O3)cc1 [Example 62, (E)-3-{1′-[2-(4-Amino-phenyl)-ethyl]-4-oxo-spiro[chromane-2,4′-piperidine]-6-yl}-N-hydroxy-acrylamide] | ≥ 6.00 | ≥ 6.00 | ≥ 6.00 | > 7.00
18 | CNc1ccc(CCN2CCC3(CC2)CC(=O)c2cc(/C=C/C(=O)NO)ccc2O3)cc1 [Example 63, (E)-3-{1′-[2-(4-Methylamino-phenyl)-ethyl]-4-oxo-spiro[chromane-2,4′-piperidine]-6-yl}-N-hydroxy-acrylamide] | ≥ 6.00 | ≥ 6.00 | ≥ 6.00 | > 7.00
19 | Cn1c(CN2CCC3(CC2)CC(=O)c2cc(/C=C/C(=O)NO)ccc2O3)cc2ccccc21 [Example 64, (E)-3-{1′-(1-Methyl-1H-indol-2-ylmethyl)-4-oxo-spiro[chromane-2,4′-piperidine]-6-yl}-N-hydroxy-acrylamide] | 5.52 to 6.00 | 5.52 to 6.00 | 5.52 to 6.00 | 6.00 to 7.00
20 | CCN1CCC2(CC1)CC(=O)c1cc(/C=C/C(=O)NO)ccc1O2 [Example 68, (E)-3-{1′-Ethyl-4-oxo-spiro[chromane-2,4′-piperidine]-6-yl}-N-hydroxy-acrylamide] | ≥ 6.00 | ≥ 6.00 | ≥ 6.00 | > 7.00
21 | CC(C)N1CCC2(CC1)CC(=O)c1cc(/C=C/C(=O)NO)ccc1O2 [Example 69, (E)-3-{1′-Isopropyl-4-oxo-spiro[chromane-2,4′-piperidine]-6-yl}-N-hydroxy-acrylamide] | ≥ 6.00 | ≥ 6.00 | ≥ 6.00 | 6.00 to 7.00
